Values of other authors, collected in patent EP0848611B1, “TACRINE PATCH” (HEXAL AG, priority 1995, dated 1997).

Experiments:
[1] = in vivo

Nc1c2c(nc3ccccc13)CCCC2 [Tacrin, 1,2,3,4-Tetrahydro-9-acridinamin]
Anstieg der ALT-Werte (Alaninaminotransferase) (patients): ≤ 20 fachen der oberen normalen Grenze | hepatotoxischer Effekt tritt auf (share of patients): etwa der Hälfte der Patienten | Bioverfügbarkeit ([1]; human): 10-30% | Halbwertszeit ([1]; human): 1,5-3,5 h | therapeutischer Blutspiegel [1]: 5 to 70 ng/mL
